Measured values reported in ChEMBL document CHEMBL5620396, “Phenotypic screening identifies a trisubstituted imidazo[1,2-a]pyridine series that induces differentiation in multiple AML cell lines” (Eur J Med Chem, 2023).
In brackets after ≈: the same amount, converted by molar mass. Activity calls are given as the source filed them. No cut-off for these calls is given here.

How the values were obtained:
[1] = Semi-thermodynamic aqueous solubility of compound; assay type: physicochemical; details: buffer; read-out: Therm_solubility
[2] = Metabolic stability in mouse S9 fraction assessed as compound remaining measured after 45 mins in absence of NADPH and […]; assay type: ADME, subcellular; details: read-out: Stability
OCI-AML-3 [3] = experiment: Induction of differentiation in human OCI-AML-3 cells assessed as reduction in cell number at 10 nM incubated for 4 days by acridine orange/DAPI staining based analysis; assay type: functional; details: time 4.0 day
ME-1 [4] = experiment: Induction of differentiation in human ME-1 cells assessed as reduction in cell number at 10 nM incubated for 4 days by acridine orange/DAPI staining based analysis; assay type: functional; details: time 4.0 day
THP-1 [5] = experiment: Induction of differentiation in human THP-1 cells assessed as reduction in cell number at 10 nM incubated for 4 days by acridine orange/DAPI staining based analysis; assay type: functional; details: time 4.0 day
HL-60 [6] = experiment: Induction of differentiation in human HL-60 cells assessed as reduction in cell number at 10 nM incubated for 4 days by acridine orange/DAPI staining based analysis; assay type: functional; details: time 4.0 day
Kasumi 1 [7] = experiment: Induction of differentiation in human Kasumi 1 cells assessed as reduction in cell number at 10 nM incubated for 4 days by acridine orange/DAPI staining based analysis; assay type: functional; details: time 4.0 day
KG-1 [8] = experiment: Induction of differentiation in human KG-1 cells assessed as reduction in cell number at 10 nM incubated for 4 days by acridine orange/DAPI staining based analysis; assay type: functional; details: time 4.0 day
HL-60 [9] = experiment: Induction of differentiation in human HL-60 cells assessed as upregulation of CD11b response at 10 uM incubated for 4 days by flow cytometry analysis relative to control; assay type: functional; details: time 4 day
HL-60 [10] = experiment: Induction of morphological changes in human HL-60 cells assessed as variation in cell size at 10 uM; assay type: functional, cell-based
HL-60 [11] = experiment: Induction of morphological changes in human HL-60 cells assessed as appearance of granules and vacuoles at 10 uM; assay type: functional, cell-based
OCI-AML-3 [12] = experiment: Induction of differentiation in human OCI-AML-3 cells assessed as reduction in cell number at 10 uM incubated for 4 days by acridine orange/DAPI staining based analysis; assay type: functional; details: time 4.0 day
HL-60 [13] = experiment: Induction of differentiation in human HL-60 cells assessed as upregulation of CD11b response at 1 uM incubated for 4 days by flow cytometry analysis relative to control; assay type: functional; details: time 4 day
KG-1 [14] = experiment: Induction of differentiation in human KG-1 cells assessed as reduction in cell number at 10 uM incubated for 4 days by acridine orange/DAPI staining based analysis; assay type: functional; details: time 4.0 day
HL-60 [15] = experiment: Induction of morphological changes in human HL-60 cells assessed as variations in nuclear segmentation at 10 uM; assay type: functional, cell-based
HL-60 [16] = experiment: Induction of morphological changes in human HL-60 cells assessed as appearance of wider and lighter cytoplasm at 10 uM; assay type: functional, cell-based
HL-60 [17] = experiment: Induction of differentiation in human HL-60 cells assessed as reduction in cell number at 10 uM incubated for 4 days by acridine orange/DAPI staining based analysis; assay type: functional; details: time 4.0 day
Kasumi 1 [18] = experiment: Induction of differentiation in human Kasumi 1 cells assessed as reduction in cell number at 10 uM incubated for 4 days by acridine orange/DAPI staining based analysis; assay type: functional; details: time 4.0 day
THP-1 [19] = experiment: Induction of differentiation in human THP-1 cells assessed as reduction in cell number at 10 uM incubated for 4 days by acridine orange/DAPI staining based analysis; assay type: functional; details: time 4.0 day
ME-1 [20] = experiment: Induction of differentiation in human ME-1 cells assessed as reduction in cell number at 10 uM incubated for 4 days by acridine orange/DAPI staining based analysis; assay type: functional; details: time 4.0 day

| SMILES | solubility thermodynamic [1] [µM] | other results |
| --- | --- | --- |
| COc1ccccc1-c1cc(NC=O)c2ncc(-c3ccc4nc(C)oc4c3)n2c1 | 2 (≈ 0.797 µg/mL) | – |
| COc1ccc(-c2cnc3c(N(C)C=O)cc(-c4ccccc4OC)cn23)cc1OC | 1 (≈ 0.417 µg/mL) | remaining at 0.75 h [2]: 46% |
| COc1ccccc1-c1cc(NC=O)c2ncc(-c3ccccc3)n2c1 | 2 (≈ 0.687 µg/mL) | – |
| COc1ccc(-c2cnc3c(NS(C)(=O)=O)cc(-c4ccccc4OC)cn23)cc1OC | 43 (≈ 19.5 µg/mL) | – |
| CCCCCCCCCCCCCC(=O)O[C@@H]1[C@@H](C)[C@@]2(O)[C@@H](C=C(CO)C[C@]3(O)C(=O)C(C)=C[C@@H]23)[C@@H]2C(C)(C)[C@]12OC(C)=O | – | Activity (OCI-AML-3 [3]): Active; Activity (ME-1 [4]): Active; Activity (THP-1 [5]): Active; Activity (HL-60 [6]): Active; Activity (Kasumi 1 [7]): Active; Activity (KG-1 [8]): Active |
| COc1ccccc1-c1cc(NC=O)c2ncc(-c3ccc4c(C)nn(C)c4c3)n2c1 | 2 (≈ 0.823 µg/mL) | – |
| COc1ccc(-c2cnc3ccc(-c4ccccc4OC)cn23)cc1OC | 156 (≈ 56.2 µg/mL) | – |
| COc1ccc(-c2cnc3c(NC=O)cc(-c4ccccc4OC)cn23)cc1OC | 37 (≈ 14.9 µg/mL) | Activity (HL-60 [9]): <=78%; Activity (HL-60 [10]): Active; Activity (HL-60 [11]): Active; Activity (OCI-AML-3 [12]): Active; Activity (HL-60 [13]): 14%; Activity (KG-1 [14]): Active; Activity (HL-60 [15]): Active; Activity (HL-60 [16]): Active; remaining at 0.75 h [2]: 28%; Activity (HL-60 [17]): Active; Activity (Kasumi 1 [18]): Active; Activity (THP-1 [19]): Active; Activity (ME-1 [20]): Active |
| COc1cc(F)ccc1-c1cc(NS(C)(=O)=O)c2ncc(-c3ccc4c(cnn4C)c3)n2c1 | 12 (≈ 5.59 µg/mL) | – |
| CNc1cc(-c2ccccc2OC)cn2c(-c3ccc(OC)c(OC)c3)cnc12 | 8 (≈ 3.12 µg/mL) | remaining at 0.75 h [2]: 81% |
| COc1ccccc1-c1cc(NC=O)c2ncc(-c3ccc4c(c3)c(C)nn4C)n2c1 | 6 (≈ 2.47 µg/mL) | – |
| COc1cc(C#N)ccc1-c1cc(NS(C)(=O)=O)c2ncc(-c3ccc4c(cnn4C)c3)n2c1 | 2 (≈ 0.945 µg/mL) | – |
| COc1ccc(-c2cnc3c(N4CC5(COC5)C4)nc(-c4ccccc4OC)cn23)cc1OC | 26 (≈ 11.9 µg/mL) | – |
| COc1ccc(-c2cnc3c(C(N)=O)cc(-c4ccccc4OC)cn23)cc1OC | 12 (≈ 4.84 µg/mL) | – |
| COc1ccc(-c2cnc3c(N)cc(-c4ccccc4OC)cn23)cc1OC | 38 (≈ 14.3 µg/mL) | – |
| COc1ccc(-c2cnc3ncc(-c4ccccc4OC)cn23)cc1OC | 1 (≈ 0.361 µg/mL) | remaining at 0.75 h [2]: 70% |
| COc1ccccc1-c1cc(NC=O)c2ncc(-c3ccc4nn(C)c(C)c4c3)n2c1 | 4 (≈ 1.65 µg/mL) | – |
| COc1ccccc1-c1cc(NC=O)c2ncc(-c3ccc4c(cnn4C)c3)n2c1 | 2 (≈ 0.795 µg/mL) | – |
| COc1ccc(-n2cnc3cnc(-c4ccccc4OC)cc32)cc1OC | 200 (≈ 72.3 µg/mL) | – |
| COc1ccc(-c2cnc3c(NC=O)nc(-c4ccccc4OC)cn23)cc1OC | 1 (≈ 0.404 µg/mL) | remaining at 0.75 h [2]: 0.5% |
| COc1ccc(-c2cnc3c(NC=O)cc(-c4ccccc4OC)cn23)cc1C#N | 2 (≈ 0.797 µg/mL) | – |
| COc1ccccc1-c1cc(NC=O)c2nccn2c1 | > 200 | – |
| CNc1nc(-c2ccccc2OC)cn2c(-c3ccc(OC)c(OC)c3)cnc12 | 39 (≈ 15.2 µg/mL) | – |
| Cn1ncc2cc(-c3cnc4c(NS(C)(=O)=O)cc(-c5ccc(F)cc5Cl)cn34)ccc21 | 9 (≈ 4.23 µg/mL) | – |
| Cc1cc(C#N)ccc1-c1cc(NS(C)(=O)=O)c2ncc(-c3ccc4c(cnn4C)c3)n2c1 | 26 (≈ 11.9 µg/mL) | – |
| COc1ccc(-c2cnc3c(N4CCOCC4)nc(-c4ccccc4OC)cn23)cc1OC | 4 (≈ 1.79 µg/mL) | – |
| CC1=C(c2cc(NS(C)(=O)=O)c3ncc(-c4ccc5c(cnn5C)c4)n3c2)CCCC1 | 26 (≈ 11.3 µg/mL) | – |
| Cc1ccccc1-c1cc(NS(C)(=O)=O)c2ncc(-c3ccc4c(cnn4C)c3)n2c1 | 13 (≈ 5.61 µg/mL) | – |
| COc1ccc(-c2cnc3c(NC(C)=O)cc(-c4ccccc4OC)cn23)cc1OC | 39 (≈ 16.3 µg/mL) | remaining at 0.75 h [2]: 1% |
| COc1ccccc1-c1cc(NS(C)(=O)=O)c2ncc(-c3ccc4c(cnn4C)c3)n2c1 | 18 (≈ 8.06 µg/mL) | – |
